Data taken from PMC4505625 (Cancer cell, 2015).
Each block holds one compound with its values, some of them ahead of it.

Experiments:
[1] = system: Ba/F3-CRLF2 cells expressing JAK2 R683G/L884P; test: Immunoblotting of Ba/F3-CRLF2 JAK2 R683G/L884P lysates; assay type: cell-based; conditions: concentrations up to 200 nM, 2 hr
[2] = system: Ba/F3-CRLF2 cells expressing JAK2 R683G or JAK2 R683G/L884P; test: Proliferation, L884P versus no L884P, JAK2 R683G; assay type: cell-based; conditions: 48 hr
[3] = system: Ba/F3-EpoR cells expressing JAK2 V617F or JAK2 V617F/L884P; test: Proliferation, L884P versus no L884P, JAK2 V617F; assay type: cell-based; conditions: 48 hr
CRLF2-rearranged PDXs [4] = test: PDX cells ex vivo, proliferation and apoptosis; assay type: cell-based, human; conditions: 1 μM; B-ALL-X2, -X3, -X4, -X6
[5] = system: Ba/F3-CRLF2 cells transduced with a library of JAK2 R683G; test: Random mutagenesis screen for resistance; assay type: cell-based; conditions: 3 μM inhibitor, absence of cytokines
MHH-CALL4 cells [6] = test: Immunoblotting of MHH-CALL4 lysates; assay type: cell-based, human; conditions: 1 μM, 2 hr
MHH-CALL4 cells [7] = test: MHH-CALL4 cell viability; assay type: cell-based, human; conditions: 72 hr
Pharmacokinetics = assay type: in vivo, mice
BALB/c mice = test: rhEpo-induced splenomegaly and reticulocytosis, four days; assay type: in vivo; conditions: 30 mg/kg/day, sacrificed day 5
Passive permeability = assay type: in vitro ADME
ABL = ABL (Homo sapiens, UniProt P00519); test: Cell-based kinase selectivity assay; conditions: follow-up of kinome panel hit
JAK2 = JAK2 (Homo sapiens, UniProt O60674); test: JAK2-driven cellular assays; assay type: cell-based
CRLF2-rearranged PDXs [8] = test: Dynamic BH3 profiling of PDX cells ex vivo; assay type: cell-based, human; conditions: 300 nM, 16 hr ex vivo
Metabolic stability = assay type: in vitro ADME
[9] = system: pSTAT5 in the spleen and bone marrow; test: rhEpo-induced pSTAT5 in murine model of polycythemia; assay type: in vivo, mice
[10] = system: panel consisting of over 400 kinases; test: In vitro kinase selectivity panel; assay type: biochemical; conditions: 100 nM; including JAK2 and TYK2
FLT3 = FLT3 (Homo sapiens, UniProt P36888); test: Off-target activity compared with BBT594
[11] = system: CRLF2-rearranged B-ALL PDXs
[12] = system: Ba/F3 cells expressing TEL-JAK2; test: Ba/F3 TEL-JAK2 growth inhibition; assay type: cell-based
BRAF = BRAF (Homo sapiens, UniProt P15056); test: Cell-based kinase selectivity assay; conditions: follow-up of kinome panel hit
[13] = system: Ba/F3-CRLF2/JAK2 R683G cells; test: Immunoblotting of Ba/F3-CRLF2/JAK2 R683G lysates; assay type: cell-based; conditions: 2 hr exposure
BCR-ABL = BCR-ABL (Homo sapiens, UniProt P00519+P11274); test: Off-target activity compared with BBT594
RET [14] = target: T1, RET (Homo sapiens, UniProt P07949); test: Off-target activity compared with BBT594
VEGFR family kinases = test: Cell-based kinase selectivity assay
wild-type mice = test: Tolerability in wild-type mice; assay type: in vivo; conditions: 30 mg/kg/day for >6 weeks
PDGFR family kinases = test: Cell-based kinase selectivity assay
[15] = system: Eμ-CRLF2/Eμ-Jak2 R683G/Ts1Rhr/Pax5+/− (line 2539p) B-ALL; test: Transplanted transgenic murine B-ALL model; conditions: 14 days of treatment from day 15 after transplant
RET [16] = target: T1, RET; test: Cell-based kinase selectivity assay; conditions: follow-up of kinome panel hit
KIT = KIT (Homo sapiens, UniProt P10721); test: Cell-based kinase selectivity assay
[17] = Drug concentration within the spleen, rhEpo model; assay type: in vivo, mice; conditions: oral 30 mg/kg/day
[18] = target: activated (phosphorylated) JAK2 kinase (Homo sapiens, UniProt O60674); test: JAK2 biochemical kinase assay
MHH-CALL4 cells [19] = test: Synergy screen with B-ALL chemotherapies; assay type: cell-based, human; conditions: isobologram, combination index

T1 sequence (P07949 29-1114, species assumed): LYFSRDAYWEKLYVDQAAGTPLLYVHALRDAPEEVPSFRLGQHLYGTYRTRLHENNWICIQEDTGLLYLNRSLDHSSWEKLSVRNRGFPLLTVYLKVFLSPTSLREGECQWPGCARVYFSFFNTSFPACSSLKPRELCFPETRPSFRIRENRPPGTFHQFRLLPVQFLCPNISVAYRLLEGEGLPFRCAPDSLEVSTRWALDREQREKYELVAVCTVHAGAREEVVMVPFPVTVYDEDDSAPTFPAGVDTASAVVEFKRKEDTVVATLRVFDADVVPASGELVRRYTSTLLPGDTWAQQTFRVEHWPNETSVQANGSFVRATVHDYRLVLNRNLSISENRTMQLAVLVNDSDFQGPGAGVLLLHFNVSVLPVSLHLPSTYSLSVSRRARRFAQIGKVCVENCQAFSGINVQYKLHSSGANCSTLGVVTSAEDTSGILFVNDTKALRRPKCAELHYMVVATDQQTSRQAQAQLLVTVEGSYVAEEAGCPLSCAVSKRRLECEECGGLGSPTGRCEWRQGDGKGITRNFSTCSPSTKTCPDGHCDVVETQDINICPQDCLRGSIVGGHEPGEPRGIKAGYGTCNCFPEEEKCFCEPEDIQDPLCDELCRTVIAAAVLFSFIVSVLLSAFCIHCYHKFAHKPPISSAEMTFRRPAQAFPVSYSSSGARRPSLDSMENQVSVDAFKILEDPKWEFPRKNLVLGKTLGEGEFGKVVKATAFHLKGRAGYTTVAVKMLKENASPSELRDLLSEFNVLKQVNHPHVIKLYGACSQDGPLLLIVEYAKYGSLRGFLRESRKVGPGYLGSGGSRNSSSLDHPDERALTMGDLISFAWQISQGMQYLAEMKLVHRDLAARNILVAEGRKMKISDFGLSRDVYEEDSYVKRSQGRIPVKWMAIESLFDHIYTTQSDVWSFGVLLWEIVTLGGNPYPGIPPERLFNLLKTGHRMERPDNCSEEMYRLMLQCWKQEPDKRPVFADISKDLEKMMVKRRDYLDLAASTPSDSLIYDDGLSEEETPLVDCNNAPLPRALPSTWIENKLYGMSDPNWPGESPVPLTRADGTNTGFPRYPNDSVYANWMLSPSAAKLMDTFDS
Sequence of activated (phosphorylated) JAK2 kinase (O60674 808-1132): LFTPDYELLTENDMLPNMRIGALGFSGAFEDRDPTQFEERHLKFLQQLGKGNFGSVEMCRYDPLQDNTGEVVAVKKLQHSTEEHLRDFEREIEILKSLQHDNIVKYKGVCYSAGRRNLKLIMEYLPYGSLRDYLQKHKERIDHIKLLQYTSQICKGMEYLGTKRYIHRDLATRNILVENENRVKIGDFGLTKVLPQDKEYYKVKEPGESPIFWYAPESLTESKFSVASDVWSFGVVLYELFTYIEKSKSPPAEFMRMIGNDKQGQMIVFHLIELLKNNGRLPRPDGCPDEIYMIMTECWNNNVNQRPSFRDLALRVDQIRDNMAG
Sequence of BRAF (P15056 whole entry, species assumed): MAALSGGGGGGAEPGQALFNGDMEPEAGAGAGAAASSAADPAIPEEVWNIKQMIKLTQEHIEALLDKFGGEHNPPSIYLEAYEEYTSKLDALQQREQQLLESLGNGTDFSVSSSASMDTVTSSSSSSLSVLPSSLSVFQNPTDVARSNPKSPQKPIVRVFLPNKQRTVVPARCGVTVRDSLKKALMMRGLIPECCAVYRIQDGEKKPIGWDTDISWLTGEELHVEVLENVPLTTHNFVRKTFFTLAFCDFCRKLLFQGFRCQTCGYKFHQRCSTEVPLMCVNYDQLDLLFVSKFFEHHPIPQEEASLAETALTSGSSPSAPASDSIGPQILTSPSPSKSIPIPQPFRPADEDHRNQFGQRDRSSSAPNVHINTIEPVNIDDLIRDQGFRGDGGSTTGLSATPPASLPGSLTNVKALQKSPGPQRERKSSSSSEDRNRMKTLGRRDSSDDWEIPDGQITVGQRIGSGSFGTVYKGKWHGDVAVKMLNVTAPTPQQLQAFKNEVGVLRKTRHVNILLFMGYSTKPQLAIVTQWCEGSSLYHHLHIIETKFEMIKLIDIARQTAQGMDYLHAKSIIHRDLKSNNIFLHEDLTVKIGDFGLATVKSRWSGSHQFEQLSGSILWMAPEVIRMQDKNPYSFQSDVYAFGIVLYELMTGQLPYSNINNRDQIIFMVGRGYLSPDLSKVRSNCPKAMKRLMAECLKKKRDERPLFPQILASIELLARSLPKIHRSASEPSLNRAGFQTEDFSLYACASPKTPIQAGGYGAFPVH
Sequence of BCR-ABL (P00519 242-493 limits assumed, one chain of several): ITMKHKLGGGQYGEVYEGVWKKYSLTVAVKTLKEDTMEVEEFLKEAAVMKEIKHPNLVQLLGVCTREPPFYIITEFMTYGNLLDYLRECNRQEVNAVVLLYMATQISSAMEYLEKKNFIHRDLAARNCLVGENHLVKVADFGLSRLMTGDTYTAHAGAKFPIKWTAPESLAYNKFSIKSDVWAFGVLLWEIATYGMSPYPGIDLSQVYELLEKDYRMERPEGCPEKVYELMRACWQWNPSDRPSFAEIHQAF
Sequence of KIT (P10721 26-976, species assumed): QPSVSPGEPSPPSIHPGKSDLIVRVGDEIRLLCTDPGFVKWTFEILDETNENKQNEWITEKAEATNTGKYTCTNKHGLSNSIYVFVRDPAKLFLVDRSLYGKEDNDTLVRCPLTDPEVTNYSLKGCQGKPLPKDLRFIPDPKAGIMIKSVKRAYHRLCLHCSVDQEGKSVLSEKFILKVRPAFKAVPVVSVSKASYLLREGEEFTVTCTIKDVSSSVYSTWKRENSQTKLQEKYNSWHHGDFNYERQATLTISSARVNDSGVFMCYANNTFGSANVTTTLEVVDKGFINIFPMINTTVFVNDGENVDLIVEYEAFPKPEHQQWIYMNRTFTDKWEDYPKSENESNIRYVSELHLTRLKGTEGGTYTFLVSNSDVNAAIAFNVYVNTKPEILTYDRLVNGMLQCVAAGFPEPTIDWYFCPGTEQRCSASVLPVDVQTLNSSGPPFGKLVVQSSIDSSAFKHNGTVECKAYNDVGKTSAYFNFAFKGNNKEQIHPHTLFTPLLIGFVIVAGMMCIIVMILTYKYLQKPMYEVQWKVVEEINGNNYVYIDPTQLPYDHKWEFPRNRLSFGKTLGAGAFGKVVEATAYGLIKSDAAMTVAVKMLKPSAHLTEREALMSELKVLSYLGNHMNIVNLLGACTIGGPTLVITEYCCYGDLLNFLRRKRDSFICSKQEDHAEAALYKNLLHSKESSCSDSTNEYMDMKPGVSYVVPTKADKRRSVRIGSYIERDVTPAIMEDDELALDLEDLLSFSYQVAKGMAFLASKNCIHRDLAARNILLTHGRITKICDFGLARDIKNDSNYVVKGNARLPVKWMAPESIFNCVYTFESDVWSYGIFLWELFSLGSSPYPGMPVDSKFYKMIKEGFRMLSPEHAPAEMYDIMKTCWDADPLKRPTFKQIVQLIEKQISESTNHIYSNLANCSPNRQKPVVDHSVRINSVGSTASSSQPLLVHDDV
Sequence of JAK2 (O60674 840-1132 limits assumed): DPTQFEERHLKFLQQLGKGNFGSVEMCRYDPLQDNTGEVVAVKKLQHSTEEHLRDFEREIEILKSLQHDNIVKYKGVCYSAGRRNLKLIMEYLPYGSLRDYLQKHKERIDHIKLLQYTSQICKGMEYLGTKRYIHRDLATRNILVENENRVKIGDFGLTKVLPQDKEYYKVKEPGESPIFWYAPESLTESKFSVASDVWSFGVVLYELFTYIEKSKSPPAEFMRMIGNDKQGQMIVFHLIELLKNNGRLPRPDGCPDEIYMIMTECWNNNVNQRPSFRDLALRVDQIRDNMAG
Sequence of ABL (P00519 whole entry, species assumed): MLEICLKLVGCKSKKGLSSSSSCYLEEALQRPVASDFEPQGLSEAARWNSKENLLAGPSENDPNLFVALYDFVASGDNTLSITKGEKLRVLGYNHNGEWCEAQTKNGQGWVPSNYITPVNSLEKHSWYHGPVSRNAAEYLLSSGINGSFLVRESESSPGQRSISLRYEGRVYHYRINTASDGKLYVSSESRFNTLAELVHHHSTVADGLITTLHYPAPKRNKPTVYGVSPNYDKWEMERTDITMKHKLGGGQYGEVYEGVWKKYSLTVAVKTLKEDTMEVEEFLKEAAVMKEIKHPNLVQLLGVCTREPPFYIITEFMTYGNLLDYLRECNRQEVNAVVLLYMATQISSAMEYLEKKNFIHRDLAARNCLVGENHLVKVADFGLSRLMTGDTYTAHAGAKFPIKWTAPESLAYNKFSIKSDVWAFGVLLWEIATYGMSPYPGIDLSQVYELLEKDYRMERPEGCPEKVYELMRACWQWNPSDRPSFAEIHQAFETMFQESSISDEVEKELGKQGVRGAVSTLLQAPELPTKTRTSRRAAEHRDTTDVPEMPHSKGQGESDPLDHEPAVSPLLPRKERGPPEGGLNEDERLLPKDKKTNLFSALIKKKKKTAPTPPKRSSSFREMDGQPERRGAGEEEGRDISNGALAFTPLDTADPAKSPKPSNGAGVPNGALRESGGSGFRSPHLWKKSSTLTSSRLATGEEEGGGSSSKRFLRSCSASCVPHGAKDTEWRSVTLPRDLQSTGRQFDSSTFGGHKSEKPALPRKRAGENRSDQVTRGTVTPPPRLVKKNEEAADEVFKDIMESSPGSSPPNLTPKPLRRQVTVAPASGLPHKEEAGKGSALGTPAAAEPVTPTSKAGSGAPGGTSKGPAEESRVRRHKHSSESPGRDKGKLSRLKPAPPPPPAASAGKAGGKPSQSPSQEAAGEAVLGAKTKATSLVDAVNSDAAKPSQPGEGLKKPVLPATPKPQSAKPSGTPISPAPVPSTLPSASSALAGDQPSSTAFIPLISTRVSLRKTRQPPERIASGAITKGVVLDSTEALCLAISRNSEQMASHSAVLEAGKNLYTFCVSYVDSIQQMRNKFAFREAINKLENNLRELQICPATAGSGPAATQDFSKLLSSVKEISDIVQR

SMILES: CC(=O)Nc1cc(Oc2ccc3c(nc(Nc4ccc(F)cc4F)n3C)c2C)ccn1 [CHZ868]
blood t1/2 (Pharmacokinetics; mice): 1 h
blood clearance (Pharmacokinetics; mouse, in vivo): moderate
oral bioavailability (Pharmacokinetics; mouse, in vivo, po): good
WBC count (BALB/c mice): did not affect
increase in reticulocyte count induced by rhEpo (BALB/c mice): blocked
splenomegaly induced by rhEpo (BALB/c mice): completely blocked
suppressive effects on pJAK2, pSTAT5, and c-Myc in presence of L884P [1]: abrogated
passive permeability (Passive permeability): high
activity against ABL in the cellular setting (ABL): not corroborated
potency in JAK2-driven cellular assays (JAK2): excellent potency
cytochrome C release upon exposure to BIM compared to vehicle (CRLF2-rearranged PDXs [8]): significantly increased
metabolic stability (Metabolic stability): good
induction of pSTAT5 by rhEpo ([9]; oral 30 mg/kg/day, administered 2 hr prior to sampling): completely blocked
time for which rhEpo induction of pSTAT5 remained attenuated ([9]; spleen and bone marrow): 48–72 hr
number of kinases with activity [10]: 26 kinases
FLT3 inhibition compared with BBT594 (FLT3): significantly reduced
pSTAT5 in spleens ([11]; 30 mg/kg/day, 6 days): almost complete loss
peripheral WBC counts compared to control animals ([11]; 30 mg/kg/day, 6 days): lower
splenomegaly compared to control animals ([11]; 30 mg/kg/day, 6 days): reduced splenomegaly
overall survival compared to control animals ([11]; 25 days of treatment): markedly improved
IC50 fold-shift for cells expressing L884P compared to cells without L884P [2]: 4 fold
IC50 fold-shift for cells expressing L884P compared to cells without L884P [3]: 2–3 fold
activity in Ba/F3 TEL-JAK2 cells [12]: highly active
activity against BRAF in the cellular setting (BRAF): not corroborated
apoptosis ex vivo (CRLF2-rearranged PDXs [4]): induced apoptosis
proliferation ex vivo (CRLF2-rearranged PDXs [4]): consistently blocked proliferation
resistant clones recovered after selection [5]: none
pJAK2 and pSTAT5 by immunoblotting [13]: completely abrogated
JAK2 activation loop phosphorylation (MHH-CALL4 cells [6]): suppressed JAK2 phosphorylation
BCR-ABL inhibition compared with BBT594 (BCR-ABL): significantly reduced
IC50 (MHH-CALL4 cells [7]): ~100 nM
RET inhibition compared with BBT594 (RET [14]): significantly reduced
activity against VEGFR family kinases in the cellular setting (VEGFR family kinases): low nanomolar activity
effects on body weight, peripheral blood cell counts, bone marrow cellularity, fractions of hematopoietic progenitors (wild-type mice): no significant effects
spleen weights (wild-type mice): trends towards reduced
serum erythropoietin levels (wild-type mice; trend): elevated
activity against PDGFR family kinases in the cellular setting (PDGFR family kinases): low nanomolar activity
overall survival compared to vehicle [15]: increased overall survival
activity against RET in the cellular setting (RET [16]): not corroborated
activity against KIT in the cellular setting (KIT): low nanomolar activity
concentration within the spleen ([17]; 2 hr after dosing): 4.3 nmol/g
drug level within the spleen ([17]; 6 hr after dosing): < 1 nmol/g
inhibitory activity in enzymatic assays ([18]; activated (phosphorylated) JAK2 kinase): modest inhibitory activity
JAK2 inhibitory activity, fold improved over BBT594 ([18]; enzymatic and cell-based assays, Figure 1B): 3–9 fold

SMILES: C[C@@H]1C[C@H]2[C@@H]3CCC4=CC(=O)C=C[C@]4(C)[C@@]3(F)[C@@H](O)C[C@]2(C)[C@@]1(O)C(=O)CO [dexamethasone, reference compound]
synergy with CHZ868 (MHH-CALL4 cells [19]): most notable synergy
overall survival compared to vehicle [15]: increased overall survival

SMILES: N#CC[C@H](C1CCCC1)n1cc(-c2ncnc3[nH]ccc23)cn1 [ruxolitinib]
apoptosis ex vivo (CRLF2-rearranged PDXs [4]): little or no effect
proliferation ex vivo (CRLF2-rearranged PDXs [4]): little or no effect
JAK2 activation loop phosphorylation (MHH-CALL4 cells [6]): hyperphosphorylation

More lines, main results first:

IC50 fold-shift for cells expressing L884P compared to cells without L884P [2]: approximately 11 fold
IC50 fold-shift for cells expressing L884P compared to cells without L884P [3]: 2–3 fold
SMILES: CC(=O)Nc1cc(Oc2ccc3c(c2)CCN3C(=O)Nc2ccc(CN3CCN(C)CC3)c(C(F)(F)F)c2)ncn1 [BBT594]
suppressive effects on pJAK2, pSTAT5, and c-Myc in presence of L884P [1]: abrogated
apoptosis ex vivo (CRLF2-rearranged PDXs [4]): induced apoptosis
proliferation ex vivo (CRLF2-rearranged PDXs [4]): consistently blocked proliferation
resistant clones recovered after selection [5]: Over 30 clones
JAK2 activation loop phosphorylation (MHH-CALL4 cells [6]): suppressed JAK2 phosphorylation
IC50 (MHH-CALL4 cells [7]): ~100 nM

IC50 fold-shift for cells expressing L884P compared to cells without L884P [2]: minimal effects
SMILES: Fc1cc(-c2cccc3ncc(-c4cnn(C5CCNCC5)c4)nc23)cc(F)c1CN1CCOCC1 [BSK805]
JAK2 activation loop phosphorylation (MHH-CALL4 cells [6]): hyperphosphorylation
IC50 (MHH-CALL4 cells [7]): > 2000 nM

IC50 fold-shift for cells expressing L884P compared to cells without L884P [2]: minimal effects
SMILES: C[C@@H]1CN(c2ccc(Nc3ncc4ccn(-c5cc(F)c(CN6CCOCC6)c(F)c5)c4n3)cc2)C[C@H](C)N1 [BVB808]
JAK2 activation loop phosphorylation (MHH-CALL4 cells [6]): hyperphosphorylation
IC50 (MHH-CALL4 cells [7]): > 2000 nM
